Source: ChEMBL document CHEMBL2016447, “Cyclopropyl Carboxamides: A New Oral Antimalarial Series Derived from the Tres Cantos Anti-Malarial Set (TCAMS)” (ACS Med Chem Lett, 2011)
pIC50: −log10 of the molar value. Converted amounts (≈) assume the structure as drawn. Blank lines part the entries; values can stand above or below the molecule they belong to. The source made the active and inactive calls. The rule behind the calls is not given here.

Key:
[1] = test system: Plasmodium falciparum; experiment: Antiplasmodial activity against Plasmodium falciparum 3D7 infected in human erythrocytes assessed as inhibition of [3H]hypoxanthine incorporation after 24 hrs by microbeta counter; type: functional, organism-based
[2] = test system: Liver; experiment: Intrinsic clearance in mouse liver microsomes assessed per gram of protein at 100 uM by HPLC analysis; type: ADME, Microsome
[3] = test system: Liver microsomes; experiment: Intrinsic clearance in human liver microsomes assessed per gram of protein at 100 uM by HPLC analysis; type: ADME, Microsome
[4] = Half life in human liver microsomes at 100 uM by HPLC analysis; type: ADME, Microsome
[5] = Half life in mouse liver microsomes at 100 uM by HPLC analysis; type: ADME, Microsome
[6] = test system: Mus musculus; experiment: AUC (0 to t) in CD1 mouse at 2 mg/kg, iv administered with 3% solutol, 7% PEG in saline by LC/MS analysis; type: ADME, organism-based, Plasma; parameters: dose 2 mg/kg, route intravenous; settings: in vivo
[7] = Oral bioavailability in CD1 mouse at 20 mg/kg administered with 1% methylcellulose in water by LC/MS analysis; type: ADME, organism-based; settings: in vivo
[8] = target: Cytochrome P450 2C19 (Homo sapiens, UniProt P33261); experiment: Inhibition of CYP2C19; type: ADME
Cytochrome P450 2C19, sequence (P33261 whole entry): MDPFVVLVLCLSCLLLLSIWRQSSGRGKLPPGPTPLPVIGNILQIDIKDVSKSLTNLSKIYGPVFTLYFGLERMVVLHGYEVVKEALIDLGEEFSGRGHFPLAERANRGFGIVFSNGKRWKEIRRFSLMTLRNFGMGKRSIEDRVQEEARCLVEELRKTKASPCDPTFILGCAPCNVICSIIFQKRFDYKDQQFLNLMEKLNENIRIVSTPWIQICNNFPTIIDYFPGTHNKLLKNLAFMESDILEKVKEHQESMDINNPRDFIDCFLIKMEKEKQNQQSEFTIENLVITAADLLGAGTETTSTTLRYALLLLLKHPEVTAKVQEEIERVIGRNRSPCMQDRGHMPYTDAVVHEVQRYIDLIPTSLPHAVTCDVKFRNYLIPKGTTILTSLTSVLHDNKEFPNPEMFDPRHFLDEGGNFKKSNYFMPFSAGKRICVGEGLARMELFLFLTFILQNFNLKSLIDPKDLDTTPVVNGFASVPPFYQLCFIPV

[9] = Solubility of the compound in DMSO by chemiluminescent nitrogen detection assay; type: physicochemical
[10] = target: T1, Nuclear receptor subfamily 1 group I member 2 (Homo sapiens, UniProt O75469); experiment: Activity at PXR at 2.5 uM
T1 sequence (O75469 whole entry): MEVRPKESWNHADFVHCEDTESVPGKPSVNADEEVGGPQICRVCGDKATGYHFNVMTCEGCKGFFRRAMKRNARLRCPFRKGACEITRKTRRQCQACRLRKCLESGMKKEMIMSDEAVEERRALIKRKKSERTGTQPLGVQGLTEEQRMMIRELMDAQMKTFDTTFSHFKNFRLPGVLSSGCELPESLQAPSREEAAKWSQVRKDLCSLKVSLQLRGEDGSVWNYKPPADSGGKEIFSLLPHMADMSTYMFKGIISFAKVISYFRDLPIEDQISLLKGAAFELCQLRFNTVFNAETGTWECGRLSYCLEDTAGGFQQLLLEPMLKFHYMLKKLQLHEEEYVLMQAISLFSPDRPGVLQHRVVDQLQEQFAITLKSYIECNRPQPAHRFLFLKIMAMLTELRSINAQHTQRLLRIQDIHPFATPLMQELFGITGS

[11] = Volume of distribution in CD1 mouse at 2 mg/kg, iv and 20 mg/kg, po by LC/MS analysis; type: ADME, organism-based; settings: in vivo
[12] = target: T1, Nuclear receptor subfamily 1 group I member 2; experiment: Activity at PXR at 1 uM
[13] = Cmax in CD1 mouse at 20 mg/kg, po administered with 1% methylcellulose in water by LC/MS analysis; type: ADME, organism-based; parameters: dose 20 mg/kg, route oral; settings: in vivo
[14] = target: 3',5'-cyclic-AMP phosphodiesterase 4B (Homo sapiens) (UniProt Q07343); experiment: Activity of PDE4B at 0.3 uM
3',5'-cyclic-AMP phosphodiesterase 4B (Homo sapiens), sequence (Q07343 whole entry): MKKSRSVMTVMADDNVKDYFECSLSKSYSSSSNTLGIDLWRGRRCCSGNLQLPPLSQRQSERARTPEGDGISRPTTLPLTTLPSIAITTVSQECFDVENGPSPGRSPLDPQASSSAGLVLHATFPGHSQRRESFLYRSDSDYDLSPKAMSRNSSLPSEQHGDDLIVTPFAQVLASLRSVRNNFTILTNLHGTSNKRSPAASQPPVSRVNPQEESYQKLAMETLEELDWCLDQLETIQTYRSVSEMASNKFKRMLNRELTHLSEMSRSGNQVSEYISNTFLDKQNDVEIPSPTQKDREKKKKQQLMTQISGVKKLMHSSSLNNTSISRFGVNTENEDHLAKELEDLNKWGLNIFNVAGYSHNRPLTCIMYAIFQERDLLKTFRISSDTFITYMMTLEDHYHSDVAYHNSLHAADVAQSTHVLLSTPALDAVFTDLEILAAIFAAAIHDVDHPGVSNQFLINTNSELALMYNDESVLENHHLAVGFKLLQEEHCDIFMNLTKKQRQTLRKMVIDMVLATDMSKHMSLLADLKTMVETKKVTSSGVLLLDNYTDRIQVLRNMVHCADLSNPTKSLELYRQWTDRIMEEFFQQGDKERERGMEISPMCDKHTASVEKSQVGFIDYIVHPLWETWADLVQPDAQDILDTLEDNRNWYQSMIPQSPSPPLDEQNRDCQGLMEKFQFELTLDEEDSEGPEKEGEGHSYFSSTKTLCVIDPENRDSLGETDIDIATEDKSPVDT

[15] = target: Cytochrome P450 2D6 (Homo sapiens, UniProt P10635); experiment: Inhibition of CYP2D6; type: ADME
Cytochrome P450 2D6, sequence (P10635 whole entry): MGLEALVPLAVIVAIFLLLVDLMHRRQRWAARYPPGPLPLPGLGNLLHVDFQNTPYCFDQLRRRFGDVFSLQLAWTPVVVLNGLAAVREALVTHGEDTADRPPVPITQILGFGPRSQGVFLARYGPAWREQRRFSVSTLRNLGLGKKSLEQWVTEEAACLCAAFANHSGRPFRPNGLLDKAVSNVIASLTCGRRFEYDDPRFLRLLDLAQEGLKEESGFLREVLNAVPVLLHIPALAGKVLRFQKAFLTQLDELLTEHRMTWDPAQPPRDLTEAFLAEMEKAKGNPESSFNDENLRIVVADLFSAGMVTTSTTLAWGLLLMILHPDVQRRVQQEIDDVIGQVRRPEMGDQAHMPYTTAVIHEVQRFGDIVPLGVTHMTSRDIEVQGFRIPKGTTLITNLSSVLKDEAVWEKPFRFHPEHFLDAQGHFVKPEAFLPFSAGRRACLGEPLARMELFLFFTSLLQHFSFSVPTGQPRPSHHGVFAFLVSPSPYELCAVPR

[16] = Protein binding in mouse plasma; type: ADME, cell-free; settings: read-out: PPB (converted)
[17] = target: Cytochrome P450 3A4 (Homo sapiens, UniProt P08684); experiment: Inhibition of CYP3A4; type: ADME
Cytochrome P450 3A4, sequence (P08684 whole entry): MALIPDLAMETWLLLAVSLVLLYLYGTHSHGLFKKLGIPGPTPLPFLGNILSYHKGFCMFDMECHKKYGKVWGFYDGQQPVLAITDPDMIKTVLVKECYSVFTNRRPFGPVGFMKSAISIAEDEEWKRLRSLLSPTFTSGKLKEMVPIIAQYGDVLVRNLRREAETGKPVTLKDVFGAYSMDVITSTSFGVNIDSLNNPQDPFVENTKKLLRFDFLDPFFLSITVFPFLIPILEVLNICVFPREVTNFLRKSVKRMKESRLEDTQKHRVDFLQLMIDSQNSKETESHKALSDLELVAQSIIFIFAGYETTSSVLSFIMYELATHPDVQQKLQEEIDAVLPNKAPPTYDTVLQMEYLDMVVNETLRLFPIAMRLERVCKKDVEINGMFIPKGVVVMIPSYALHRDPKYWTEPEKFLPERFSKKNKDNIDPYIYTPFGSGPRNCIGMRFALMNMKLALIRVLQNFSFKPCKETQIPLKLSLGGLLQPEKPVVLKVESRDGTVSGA

[18] = Half life in CD1 mouse at 2 mg/kg, iv administered with 3% solutol, 7% PEG in saline by LC/MS analysis; type: ADME, organism-based; parameters: dose 2 mg/kg, route intravenous; settings: in vivo
[19] = test system: Mus musculus; experiment: AUC (0 to t) in CD1 mouse at 20 mg/kg, po administered with 1% methylcellulose in water by LC/MS analysis; type: ADME, organism-based; parameters: dose 20 mg/kg, route oral; settings: in vivo
[20] = test system: Plasmodium falciparum; experiment: Antiplasmodial activity Plasmodium falciparum 3D70087/N9 infected in NODscidIL2Rgammac-/- mouse assessed as reduction of parasitemia administered 3 days after infection measured on day 3 to 7 by flow cytometry; type: functional; settings: 3D70087/N9, 72 h
[21] = Clearance in CD1 mouse at 2 mg/kg, iv and 20 mg/kg, po by LC/MS analysis; type: ADME, organism-based; settings: in vivo
[22] = target: Cytochrome P450 2C9 (Homo sapiens, UniProt P11712); experiment: Inhibition of CYP2C9; type: ADME
Cytochrome P450 2C9, sequence (P11712 whole entry): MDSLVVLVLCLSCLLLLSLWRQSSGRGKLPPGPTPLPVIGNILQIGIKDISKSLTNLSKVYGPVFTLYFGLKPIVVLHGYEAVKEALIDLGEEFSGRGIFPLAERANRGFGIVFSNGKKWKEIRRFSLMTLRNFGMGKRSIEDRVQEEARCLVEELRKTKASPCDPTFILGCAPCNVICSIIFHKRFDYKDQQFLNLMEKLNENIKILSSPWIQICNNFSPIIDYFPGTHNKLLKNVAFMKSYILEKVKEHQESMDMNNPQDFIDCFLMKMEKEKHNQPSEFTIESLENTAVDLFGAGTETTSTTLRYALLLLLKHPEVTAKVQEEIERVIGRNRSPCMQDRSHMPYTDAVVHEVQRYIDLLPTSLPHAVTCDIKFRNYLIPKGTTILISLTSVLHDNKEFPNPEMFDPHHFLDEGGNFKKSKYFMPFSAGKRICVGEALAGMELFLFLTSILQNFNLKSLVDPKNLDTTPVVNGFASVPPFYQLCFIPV

[23] = test system: Plasmodium falciparum; experiment: Antiplasmodial activity against Plasmodium falciparum 3D7 by parasite lactate dehydrogenase assay; type: functional, organism-based
[24] = Lipophilicity, log D of the compound by chromatographic hydrophobicity index assay; type: physicochemical
[25] = Half life in CD1 mouse at 2 mg/kg, iv administered with 20% encapsine in water by LC/MS analysis; settings: in vivo
[26] = Protein binding in human plasma; type: ADME, cell-free; settings: read-out: PPB
[27] = Volume of distribution in CD1 mouse at 2 mg/kg, iv and 20 mg/kg, po by LC/MS analysis; settings: in vivo
[28] = Clearance in CD1 mouse at 2 mg/kg, iv and 20 mg/kg, po by LC/MS analysis; settings: in vivo
[29] = test system: Mus musculus; experiment: AUC (0 to t) in CD1 mouse at 2 mg/kg, iv administered with 20% encapsine in water by LC/MS analysis; settings: in vivo

CLint [2]: 5.6 mL/min/g
CLint [3]: 1.6 mL/min/g
half-life at 100 µM [4]: > 30 min
half-life at 100 µM [5]: 11.7 min
SMILES: CC(Oc1ccccc1Cl)C(=O)Nc1cc(C(F)(F)F)ccc1-n1cncn1 (racemic)
pIC50 [1]: 6.72

pIC50 [23]: 7.96
SMILES: Cc1cc(C)n2nc(C(=O)Nc3cc(C(F)(F)F)ccc3N3CCOCC3)nc2n1
pIC50 [1]: < 5.30

pIC50 [23]: 7.14
SMILES: Cc1ccnc2nc(C(=O)Nc3cc(C(F)(F)F)ccc3N3CCCCC3)nn12
pIC50 [1]: 5.40

chromatographic logD [24]: 4.56
SMILES: CC(Oc1ccc(Cl)cc1)C(=O)Nc1cc(C(F)(F)F)ccc1N1CCOCC1 (racemic)
pIC50 [1]: 6.36

half-life [25]: 166 min
bioavailability [7]: 81%
INH [8]: > 10 µM
solubility [9]: 100 µM (≈ 37.2 µg/mL)
Activity [10]: Active
Cmax [13]: 2340 ng/mL
fraction unbound [26]: 0.01
Vd [27]: 6.47 L/kg
INH [15]: > 10 µM
fraction unbound [16]: 0.01
INH [17]: > 10 µM
chromatographic logD [24]: 3.83
AUCt [19]: 9.71 µg/h/mL
INH [22]: 7.9 µM
clearance [28]: 29.7 mL/min/kg
AUCt [29]: 0.596 µg/h/mL
SMILES: O=C(Nc1cc(C(F)(F)F)ccc1-n1cncn1)C1(c2ccccc2)CC1
pIC50 [1]: 7.18
ED50 [20]: > 50 mg/kg
ED90 [20]: > 50 mg/kg

More lines, now with the values behind:

SMILES: O=C(Nc1cc(Cl)ccc1-n1cncn1)C1(c2ccccc2)CC1
pIC50 [1]: 5.77

SMILES: CC(Oc1cccc(C(F)(F)F)c1)C(=O)Nc1cc(C(F)(F)F)ccc1-n1cncn1 (racemic)
pIC50 [1]: 6.55

SMILES: O=C(Nc1cc(C(F)(F)F)ccc1-n1cncn1)C1(c2cccc(C(F)(F)F)c2)CC1
AUCt [6]: 2.23 µg/h/mL
bioavailability [7]: 55%
INH [8]: > 10 µM
solubility [9]: 9 µM (≈ 3.96 µg/mL)
Activity [10]: Active
Vd [11]: 11.9 L/kg
Activity [12]: Active
Cmax [13]: 1090 ng/mL
Activity [14]: Active
INH [15]: > 10 µM
fraction unbound [16]: 0.006
INH [17]: > 10 µM
half-life [18]: 612 min
AUCt [19]: 13.6 µg/h/mL
ED50 [20]: 12 mg/kg
ED90 [20]: 20 mg/kg
clearance [21]: 14.3 mL/min/kg
INH [22]: 6.3 µM

SMILES: CC(Oc1cccc(Cl)c1)C(=O)Nc1cc(C(F)(F)F)ccc1-n1cncn1 (racemic)
CLint [2]: 7.9 mL/min/g
CLint [3]: 1.2 mL/min/g
pIC50 [1]: 6.49
half-life at 100 µM [4]: > 30 min
half-life at 100 µM [5]: 6.2 min

SMILES: CC(Oc1ccccc1)C(=O)Nc1cc(C(F)(F)F)ccc1-n1cncn1 (racemic)
CLint [2]: 5.3 mL/min/g
CLint [3]: 2.9 mL/min/g
pIC50 [1]: 6.05
half-life at 100 µM [4]: 24.7 min
half-life at 100 µM [5]: 12 min

SMILES: CCN(CC)CCCC(C)Nc1ccnc2cc(Cl)ccc12 (configuration not stated) [CHLOROQUINE]
ED50 [20]: 2 mg/kg

SMILES: CC(Oc1ccc(Cl)cc1)C(=O)Nc1cc(C(F)(F)F)ccc1-n1cncn1 (racemic)
CLint [2]: 4.1 mL/min/g
CLint [3]: 3.3 mL/min/g
pIC50 [1]: 6.40
half-life at 100 µM [4]: 21.8 min
chromatographic logD [24]: 3.84
half-life at 100 µM [5]: 13.6 min
